# Data published in article PMC9000871, “Rhodamine 101 Conjugates of Triterpenoic Amides Are of Comparable Cytotoxicity as Their Rhodamine B Analogs” (Molecules, 2022).
# Where a name gives a salt, the structure may show the parent alone.
# How the values were obtained:
# [1] = system: FaDu (hypopharyngeal carcinoma); test: SRB cytotoxicity assay, FaDu; format: cell-based; details: Homo sapiens, 72 h of treatment, mean ± standard mean error
# Excerpt: (§1) The cell lines were obtained from Department of Oncology (Martin-Luther-University Halle Wittenberg; they were bought from ATCC; A 375 (CRL-1619), HT29 (HTB-38), MCF7 (HTM-22), A2780 (HTP-77), FaDu (HTP-43), NIH 3T3 (CRL-1658), HEK-293 (CRL-1573)). Cultures were maintained as monolayers in RPMI 1640 medium with L-glutamine (Capricorn Scientific GmbH, Ebsdorfergrund, Germany) supplemented with 10% heat inactivated fetal bovine serum (Sigma-Aldrich Chemie GmbH, Steinheim, Germany) and penicillin/streptomycin (1%, Capricorn Scientific GmbH, Ebsdorfergrund, Germany) at 37 °C in a humidified atmosphere with 5% CO2. The cytotoxicity of the compounds was evaluated using the sulforhodamine-B (Kiton-Red S, ABCR) micro culture colorimetric assay using confluent cells in 96-well plates with the seeding of the cells on day 0 applying appropriate cell densities to prevent confluence of the cells during the period of the experiment. On day 1, the cells were treated with six different concentrations (1, 3, 7, 12, 20, and 30 μM); thereby, the final concentration of DMSO was always <0.5%, generally regarded as non-toxic to the cells. On day 4, the supernatant medium was discarded; the cells were fixed with 10% trichloroacetic acid. After another day at 4 °C, the cells were washed in a strip washer and dyed with the SRB solution (100 μL, 0.4% in 1% acetic acid) for about 20 min to be followed by washing of the plates (four times, 1% acetic acid) and air-drying overnight. Furthermore, tris base solution (200 μL, 10 mM) was added to each well and absorbance was measured at λ = 570 nm employing a reader (96 wells, Tecan Spectra, Crailsheim, Germany). The EC50 values were averaged from three independent experiments performed each in triplicate calculated from semi logarithmic dose response curves applying a non-linear four-parameter Hills-slope equation (GraphPad Prism5; variables top and bottom were set to 100 and 0, respectively).
# [2] = system: NIH 3T3 (fibroblasts), non-malignant; test: SRB cytotoxicity assay, NIH 3T3; format: cell-based; details: Mus musculus, NIH3T3, 72 h, 72 h of treatment, mean ± standard mean error
# Excerpt: as §1
# [3] = system: A2780 (ovarian carcinoma); test: SRB cytotoxicity assay, A2780; format: cell-based; details: Homo sapiens, 72 h of treatment, mean ± standard mean error
# Excerpt: as §1
# [4] = system: HT29 (colon adenocarcinoma); test: SRB cytotoxicity assay, HT29; format: cell-based, human; details: 72 h of treatment, mean ± standard mean error
# Excerpt: as §1
# A375 (melanoma) = test: SRB cytotoxicity assay, A375; format: cell-based, human; details: Homo sapiens, A-375, 72 h, 72 h of treatment, mean ± standard mean error
# Excerpt: as §1
# [5] = system: MCF-7 (breast adenocarcinoma); test: SRB cytotoxicity assay, MCF-7; format: cell-based; details: Homo sapiens, MCF7, 72 h of treatment, mean ± standard mean error
# Excerpt: as §1
Structure (SMILES),melting point,EC50 [1] [nM],EC50 [2] [nM],EC50 [3] [nM],"EC50 ([4]; Homo sapiens, HT-29, 72 h) [nM]",EC50 (A375 (melanoma)) [nM],EC50 [5] [nM],EC50 [4] [nM]
"CCN(CC)c1ccc2c(-c3ccccc3C(=O)N3CCN(C(=O)[C@]45CCC(C)(C)CC4C4=CCC6[C@@]7(C)CC[C@H](OC(C)=O)C(C)(C)C7CC[C@@]6(C)[C@]4(C)CC5)CC3)c3ccc(=[N+](CC)CC)cc-3oc2c1 (stereo partly drawn) (as salt: chloride) [compound 14, 9-[2-[[4-(3β-Acetyloxy-28-oxo-olean-12-en-28-yl)-1-piperazinyl]carbonyl]phenyl]-3,6-bis(diethylamino)-xanthylium chloride]",246 to 252 °C,–,–,–,–,–,–,–
"CCN(CC)c1ccc2c(-c3ccccc3C(=O)N3CCN(C(=O)[C@]45CC[C@@H](C)[C@H](C)C4C4=CCC6[C@@]7(C)CC[C@H](OC(C)=O)C(C)(C)C7CC[C@@]6(C)[C@]4(C)CC5)CC3)c3ccc(=[N+](CC)CC)cc-3oc2c1 (stereo partly drawn) (as salt: chloride) [compound 15, 9-[2-[[4-(3β-Acetyloxy-28-oxo-ursan-12-en-28-yl)-1-piperazinyl]carbonyl]phenyl]-3,6-bis(diethylamino)-xanthylium chloride]",245 to 251 °C,–,–,–,–,–,–,–
"CCN(CC)c1ccc2c(-c3ccccc3C(=O)N3CCN(C(=O)[C@]45CC[C@@H](C(C)=O)C4C4CCC6[C@@]7(C)CC[C@H](OC(C)=O)C(C)(C)C7CC[C@@]6(C)[C@]4(C)CC5)CC3)c3ccc(=[N+](CC)CC)cc-3oc2c1 (stereo partly drawn) (as salt: chloride) [compound 16, 9-[2-[[4-(3β-Acetyloxy-20,28-dioxo-30-norlupan-28-yl)-1-piperazinyl]carbonyl]phenyl]-3,6-bis(diethylamino)-xanthylium chloride]",247 to 254 °C,–,–,–,–,–,–,–
"CCN(CC)c1ccc2c(-c3ccccc3C(=O)N3CCCN(C(=O)[C@]45CC[C@@H](C(C)=O)C4C4CCC6[C@@]7(C)CC[C@H](OC(C)=O)C(C)(C)C7CC[C@@]6(C)[C@]4(C)CC5)CC3)c3ccc(=[N+](CC)CC)cc-3oc2c1 (stereo partly drawn) (as salt: chloride) [compound 20, 9-[2-[[4-(3β-Acetyloxy-20,28-dioxo-30-norlupan-28-yl)-1-homopiperazinyl]carbonyl]phenyl]-3,6-bis(diethylamino)-xanthylium chloride]",248 to 250 °C (dec.),–,–,–,–,–,–,–
CC(=O)O[C@H]1CC[C@@]2(C)C(CC[C@]3(C)C2CC=C2C4CC(C)(C)CC[C@]4(C(=O)N4CCCN(C(=O)c5ccccc5C5=c6cc7c8c(c6Oc6c5cc5c9c6CCCN9CCC5)CCC[N+]=8CCC7)CC4)CC[C@]23C)C1(C)C (some centres unmarked) (as salt: chloride) [compound 26],> 300 °C,–,–,–,–,–,–,–
CC(=O)O[C@H]1CC[C@@]2(C)C(CC[C@]3(C)C2CC=C2C4[C@@H](C)[C@H](C)CC[C@]4(C(=O)N4CCCN(C(=O)c5ccccc5C5=c6cc7c8c(c6Oc6c5cc5c9c6CCCN9CCC5)CCC[N+]=8CCC7)CC4)CC[C@]23C)C1(C)C (some centres unmarked) (as salt: chloride) [compound 27],> 300 °C,–,–,–,–,–,–,–
CC(=O)O[C@H]1CC[C@@]2(C)C(CC[C@]3(C)C2CCC2C4[C@H](C(C)=O)CC[C@]4(C(=O)N4CCCN(C(=O)c5ccccc5C5=c6cc7c8c(c6Oc6c5cc5c9c6CCCN9CCC5)CCC[N+]=8CCC7)CC4)CC[C@]23C)C1(C)C (some centres unmarked) (as salt: chloride) [compound 28],> 300 °C,–,–,–,–,–,–,–
"C=C(C)[C@@H]1CC[C@]2(C(=O)O)CC[C@]3(C)[C@H](CC[C@@H]4[C@@]5(C)CC[C@H](O)C(C)(C)[C@@H]5CC[C@]43C)[C@@H]12 [BA, betulinic acid, reference compound]",–,13700 ± 900,16100 ± 1400,8800 ± 900,14400 ± 2300,17700 ± 400,10200 ± 1200,–
"COc1cccc2c1C(=O)c1c(O)c3c(c(O)c1C2=O)C[C@@](O)(C(=O)CO)C[C@@H]3O[C@H]1C[C@H](N)[C@H](O)[C@H](C)O1 [DX, doxorubicin, reference compound]",–,1700 ± 300,–,20 ± 10,900 ± 200,–,1100 ± 300,–
"CC1(C)CC[C@]2(C(=O)O)CC[C@]3(C)C(=CC[C@@H]4[C@@]5(C)CC[C@H](O)C(C)(C)[C@@H]5CC[C@]43C)[C@@H]2C1 [OA, oleanolic acid, reference compound]",–,> 30000,> 30000,> 30000,> 30000,> 30000,> 30000,–
"CC(=O)[C@@H]1CC[C@]2(C(=O)O)CC[C@]3(C)[C@H](CC[C@@H]4[C@@]5(C)CC[C@H](O)C(C)(C)[C@@H]5CC[C@]43C)[C@@H]12 [PA, platanic acid, reference compound]",–,> 30000,> 30000,> 30000,> 30000,> 30000,> 30000,–
"C[C@H]1[C@H](C)CC[C@]2(C(=O)O)CC[C@]3(C)C(=CC[C@@H]4[C@@]5(C)CC[C@H](O)C(C)(C)[C@@H]5CC[C@]43C)[C@H]12 [UA, ursolic acid, reference compound]",–,18200 ± 1700,–,–,–,15400 ± 1000,–,–
"CC(=O)O[C@H]1CC[C@@]2(C)C(CC[C@]3(C)C2CC=C2C4CC(C)(C)CC[C@]4(C(=O)N4CCNCC4)CC[C@]23C)C1(C)C (stereo partly drawn) [compound 6, 3β-Acetyloxy-28-(1-piperazinyl)-olean-12-en-28-one]",172 to 175 °C,–,1700 ± 100,1700 ± 100,1300 ± 100,1400 ± 200,1700 ± 200,–
"CC(=O)O[C@H]1CC[C@@]2(C)C(CC[C@]3(C)C2CC=C2C4[C@@H](C)[C@H](C)CC[C@]4(C(=O)N4CCNCC4)CC[C@]23C)C1(C)C (stereo partly drawn) [compound 7, 3β-Acetyloxy-28-(1-piperazinyl)-urs-12-en-28-one]",187 to 190 °C,–,2100 ± 100,2100 ± 100,1900 ± 300,2000 ± 400,1700 ± 200,–
"CC(=O)O[C@H]1CC[C@@]2(C)C(CC[C@]3(C)C2CCC2C4[C@H](C(C)=O)CC[C@]4(C(=O)N4CCNCC4)CC[C@]23C)C1(C)C (stereo partly drawn) [compound 8, 3β-Acetyloxy-28-(1-piperazinyl)-30-norlupane-20,28-dione]",127 to 130 °C,–,1300 ± 100,2600 ± 400,3860,1900 ± 400,2700 ± 300,3900 ± 200
"CC(=O)O[C@H]1CC[C@@]2(C)C(CC[C@]3(C)C2CC=C2C4CC(C)(C)CC[C@]4(C(=O)N4CCCNCC4)CC[C@]23C)C1(C)C (stereo partly drawn) [compound 10, 3β-Acetyloxy-28-(1-homopiperazinyl)-olean-12-en-28-one]",182 to 185 °C,–,1800 ± 200,2200 ± 100,1900 ± 100,1900 ± 900,1600 ± 100,–
"CC(=O)O[C@H]1CC[C@@]2(C)C(CC[C@]3(C)C2CC=C2C4[C@@H](C)[C@H](C)CC[C@]4(C(=O)N4CCCNCC4)CC[C@]23C)C1(C)C (stereo partly drawn) [compound 11, 3β-Acetyloxy28-(1-homopierazinyl)-urs-12-en-28-one]",171 to 175 °C,–,900 ± 100,2900 ± 240,2000 ± 100,3200 ± 200,2400 ± 100,–
"CC(=O)O[C@H]1CC[C@@]2(C)C(CC[C@]3(C)C2CCC2C4[C@H](C(C)=O)CC[C@]4(C(=O)N4CCCNCC4)CC[C@]23C)C1(C)C (stereo partly drawn) [compound 12, 3β-Acetyloxy-28-(1-homopiperazinyl)-30-norlupane-20,28-dione]",162 to 165 °C,–,600 ± 100,1600 ± 100,2300 ± 200,900 ± 100,1800 ± 200,–
